# Conditions: buffer; pH 7.4; 200.0 µM
row,Structure (SMILES),solubility kinetic [µg/mL]
1,Cc1nc(C2COc3ccccc3O2)sc1C(=O)O (stereo not given),35
2,O=C1NC2=C(C(=O)CCC2)C(c2cccc([N+](=O)[O-])c2)N1 (stereo not given),> 43.1
3,Cc1ccc(N2CC(=O)Nc3c(sc4nc(C)cc(C)c34)C2=O)cc1,0.6
4,CCOC(=O)c1c(C)[n+]([O-])c2ccc3c(non3O)c12,8.7
5,Cc1ccc(C2N=C(N)Nc3nc4ccccc4n32)cc1 (stereo not given),35
6,CCNCC(O)c1cccc(O)c1 (stereo not given),18.9
7,Cc1cccc(C)c1OCC(O)CN1CCc2ccccc2C1.Cl (stereo not given),> 52.2
8,COC(=O)c1ccc(NC(=S)NCCc2ccc(OC)cc2)cc1,0.8
9,O=C(O)CSCc1nc2cccnc2n1C1CCCCC1,42.1
10,Cc1ccc(NC(=O)CCc2c[nH]c3ccccc23)nc1,> 41.9
11,O=C(COC(=O)COc1ccc(Cl)cc1Br)NC1CC1,> 54.4
12,Nc1nc(SCC(=O)Nc2cccc([N+](=O)[O-])c2)n[nH]1,> 44.1
13,O=C(COC(=O)/C=C/c1cccc(C(F)(F)F)c1)NC(=O)NCc1ccco1,4.5
14,Cc1ccccc1OCCn1cc(C(=O)O)c2ccccc21,> 44.3
15,COc1ccccc1NC(=O)c1cc(N)cc(C(=O)Nc2ccccc2OC)c1,29.5
16,O=C(COc1ccc(C(=O)c2ccc(F)cc2)cc1)Nc1cccc(S(=O)(=O)N2CCOCC2)c1,4.2
17,Cc1ccc(C(=O)NCC(c2ccc(F)cc2)N2CCOCC2)cc1 (stereo not given),44.4
18,O=c1c2ccccc2[nH]c(=S)n1CCCn1ccnc1,19.4
19,CC1CN(CC(=O)Nc2nc3ccccc3s2)CC(C)O1 (stereo not given),39
20,O=C(Cc1cccc2ccccc12)Nc1ccccc1,1.9

row,Structure (SMILES),solubility kinetic [µg/mL]
1,CC1CCCN(C(=O)COc2ccc3c(c2)OCO3)C1 (stereo not given),> 41.6
2,O=C(O)CC1(CC(=O)Nc2cccc(C(=O)O)c2)CCCC1,> 45.8
3,CC(=O)c1ccc(NC(=O)CN2C(=O)NC3(CCc4ccccc43)C2=O)cc1 (stereo not given),> 56.6
4,CC(C)(C)c1ccc(/C=C2/SC(N3CCCC3)=NC2=O)cc1,15.4
5,O=Cc1ccc2c(c1)CCN2Cc1ccccc1,15.2
6,CC#CC[N+](C)(CC#CC)CC(=O)c1ccccc1.[Br-],30
7,Cc1ccc(C(=O)NC(C)c2ccc(-n3ccnc3)cc2)o1 (stereo not given),40.8
8,CC1CCCCC1NC(=O)CCS(=O)(=O)c1ccc(Cl)cc1 (stereo not given),22.8
9,CN1CCN(c2nc(-c3ccccc3)ncc2S(C)(=O)=O)CC1,> 49.9
10,CC(C)CCN1CCN(Cc2cccs2)CC1CCO (stereo not given),39.8
11,Cc1cccc(NC(=O)c2ccc([N+](=O)[O-])s2)n1,9.5
12,O=C(Nc1nnc(-c2cccnc2)o1)c1cccc([N+](=O)[O-])c1,> 46.7
13,COc1c(Cl)cc(C(=O)NCc2ccco2)cc1Cl,40.2
14,CS(=O)(=O)O.OC(CCN1CCCCC1)(c1ccccc1)c1ccccc1,> 58.7
15,CSc1nc(NCC(C)O)c2c3c(sc2n1)CN(C)CC3 (stereo not given),44.7
16,CCOC(=O)C1CCN(C(=O)CCC2CCCC2)CC1,37.6
17,O=C1CSC(c2cccc([N+](=O)[O-])c2)N1C1CC2CCC1C2 (stereo not given),11.2
18,Cc1cc(C)nc(N2CCCC(C(=O)Nc3cccc(Cl)c3)C2)n1 (stereo not given),< 0.2
19,Cc1cc(Cl)nc(NC(=O)Nc2cccc(Cl)c2)n1,< 0.2
20,Cc1cccc(C(=O)NCCCNC(=O)c2cccnc2)c1,41.6

row,Structure (SMILES),solubility kinetic [µg/mL]
1,Clc1cccc(OCCCCN2CCCCC2)c1,31
2,Cc1ccc(NC(=O)c2oc3ccccc3c2C)nc1,6.4
3,COc1ccc2[nH]cc(CCNC(C)=O)c2c1,> 34.8
4,C=CCN1C(=O)C2(OCCCO2)c2cc(C)ccc21,19.4
5,COc1cc(Cl)c(C)cc1NC(=O)Cc1cccs1,1
6,O=C(NC1CCN(C(=O)Nc2cccc(F)c2)CC1)c1ccco1,> 49.7
7,Cc1cccc(C(=O)NCC(=O)NC2CCC(C)CC2)c1 (stereo not given),10.5
8,OCCC1CN(Cc2ccc3c(c2)CCO3)CCN1C1CCCC1 (stereo not given),45.2
9,Oc1ccc(C2Nc3cccc4cccc(c34)N2)cc1,> 39.3
10,COc1ccc(CCNC(=O)c2cccs2)cc1OC,33.8
11,Cc1ccc(C(=O)NCCc2ccccc2)cc1,27.4
12,OC1CSc2nc3ccccc3n2C1 (stereo not given),26.6
13,CC(C)Cc1ccc(S(=O)(=O)Nc2ccccn2)cc1,31.7
14,CCOC(=O)c1c(C)[nH]c(C)c1C(=O)COC(=O)c1cccs1,> 50.3
15,C#CCOc1ccc(/C=C2/C(=O)N(c3cccc(C(=O)O)c3)N=C2C)cc1OC,> 58.6
16,CC(NC(=O)C12CC3CC(CC(O)(C3)C1)C2)c1ccccc1 (stereo not given),> 44.9
17,Cc1cccc(NC(=O)Nc2ccc(Cl)cc2)n1,< 0.2
18,CCCCC(C(=O)NC(C)c1ccccc1)C(=O)NC(C)c1ccccc1 (stereo not given),1.5
19,CC1CCN(C(=O)c2ccc(S(=O)(=O)N3CCOCC3)cc2)CC1,43.2
20,CC1CN(CCn2cnc3c(N)ncnc32)CC(C)O1 (stereo not given),36.9

# From PubChem BioAssay AID1996
